Series [1] deals with MKN45 gastric cancer cells. In words: Gastric tumor growth in MKN45 tumor-bearing nude mice. It is filed as in vivo. The note with it: 5-FU injection. From the text:
In this example, the effects of the A. cinnamomea composition of solid-state cultivated mycelium water/alcohol extracts and cut-log wood cultivated fruiting body water/alcohol extracts on gastric tumor growth were further evaluated in an animal model. The test A. cinnamomea compositions included 5% FB/95% SC, 10% FB/90% SC, 20% FB/80% SC, and 40% FB/60% SC, respectively. The animal used in the experiment is an immune deficient mouse (nude mice) implanted MKN45 gastric cancer cells. 10 days after the cancer cell implantation, the animals were orally given the tested A. cinnamomea compositions (300 mg/kg/day) by oral gavage for 21 days. The treated animals were scarified. The tumor was isolated and weighted, as the key indicator for assessing the inhibition of tumor growth.

For series [2], the system named is Human gastric cancer MKN-45 cells. In words: Auxiliary effect on 5-FU in MKN-45 tumor-bearing nude mice. The note with it: 5-FU alone 25 mg/kg ip three times a week. In kind it is in vivo, Balb/c nu/nu mice. The procedure: In this example, the auxiliary effect of the A. cinnamomea composition on the anti-tumor agent 5-FU was confirmed in an animal model. Balb/c nu/nu mice of six-week old, purchased from the National Laboratory Animal Center, were used in the test. The 5-FU (25 mg/kg, ip) treated group was used as positive group, with drug administration frequency of three times a week. The A. cinnamomea composition (L) of solid-state cultivated mycelium water/alcohol extract and cut-log wood cultivated fruiting body water/alcohol extract was orally administered to mice once a day with following dosages: 1× dose of 680 mg/kg, 0.5× dose of 340 mg/kg, 0.25× dose of 170 mg/kg and 0.125× dose of 85 mg/kg. If the mice had been injected with 5-FU, the L was orally treated four hours after the application of 5-FU. Human gastric cancer MKN-45 cells (3×10^6) were implanted into immune deficient nude mice, and the drug administration was started when the tumor size reached to 100˜200 mm^3. The tested animal groups included the control, 5-FU, 5FU+L, 5-FU+0.5L, 5-FU+0.25L and 5-FU+0.125L groups, with 8 mice in each group.

In the next series the test system is CFU-GM in bone marrow. In words: CFU-GM colony test in bone marrow of 5-FU treated mice. It is filed as in vivo, C57BL/6 mice. The note with it: 5-FU alone 200 mg/kg ip at first day; marrow at day 11. The procedure: (§1) The effect of the A. cinnamomea composition (L) on recovering the blood cell reducing caused by the application of chemotherapy drug 5-FU was evaluated in the colony test of CFU-GM in bone marrow. C57BL/6 mice of eight-week old, purchased from the National Laboratory Animal Center, were used in the test. The tested animal groups included the control, 5-FU, 5FU+L, 5-FU+0.5L, 5-FU+0.25L and 5-FU+Angiotensin II (Aii) groups, with 6 mice in each group. After the intraperitoneal injection of 5-FU (200 mg/kg) at first day, the test drug A. cinnamomea composition (L) was orally administered to the animals, or the positive control drug Angiotensin II (Aii, 100 μg/kg) was intraperitoneally injected to the animals at day 4˜10. Dosages of the A. cinnamomea composition (L) were used as follow: 1× dose of 680 mg/kg, 0.5× dose of 340 mg/kg and 0.25× dose of 170 mg/kg. Whole blood was collected from cheek before sacrificing the animals at day 11, and the Complete Blood Count (CBC) was performed to record the number of blood cells, including white blood cells, red blood cells, lymphocytes and neutrophils in peripheral blood. The femur was removed from the sacrificed mouse at day 11 of the experiment. The bone marrow cells were collected for the cultivation of CFU-GM. Cells was cultured for 7 days, and the number of CFU-GM colonies was counted.

The test system of series [3] is blood cells in peripheral blood. Briefly: Complete Blood Count in 5-FU treated mice. It is filed as in vivo, C57BL/6 mice. The note with it: 5-FU alone 200 mg/kg ip, compared to control. The method, then: as §1

We go through 1 compound from patent US20170368120A1, “Use of compositions of water/alcohol extracts of Antrodia cinnamomea cut-log wood cultivated fruiting body and solid-state cultivated mycelium as auxiliaries for anti-cancer agents” (Taiwan Leader Biotech Corp, priority 2016, published 2017).

Molecules are shown by their SMILES.

As for `O=c1[nH]cc(F)c(=O)[nH]1` [5-FU, 5-fluorouracil], the tumor weight result in series [1] was “significant decrease in tumor weight”. Besides, the tumor weight in series [2] turned out to be 0.85 g. The CFU-GM colony number in the series on CFU-GM in bone marrow was 1,869 colonies/10^6 marrow cells. Further, in series [3], the number of lymphocytes entry is reported as “significantly reduced”, the number of neutrophils entry is recorded as “significantly reduced”, the “number of red blood cells” value is recorded as “significantly reduced” and the “number of white blood cells” value is “significantly reduced”.
